Data from US20250320213A1, “Nitrogen-Containing Heterocyclic Compounds” (Pfizer Inc., priority 2024, published 2025).
Like-named read-outs stand apart in the source and are kept apart here.

How the values were obtained:
STAT6 = molecular target: T1, STAT6 (Homo sapiens, UniProt P42226); test: STAT6 Reporter Luciferase Assay (IL-13 stimulated HaCaT keratinocyte NanoLuc reporter cells); assay type: cell-based; details: read-out: Reporter EC50
T1 construct: stably transfected HaCaT keratinocyte cell line, which expresses NanoLuc luciferase reporter gene under the transcriptional control of the STAT6 responsive promoter; endogenous in cells; host or cells: HaCaT keratinocyte reporter cell line (stably transfected with a NanoLuc reporter)
T1 sequence (P42226 1-847): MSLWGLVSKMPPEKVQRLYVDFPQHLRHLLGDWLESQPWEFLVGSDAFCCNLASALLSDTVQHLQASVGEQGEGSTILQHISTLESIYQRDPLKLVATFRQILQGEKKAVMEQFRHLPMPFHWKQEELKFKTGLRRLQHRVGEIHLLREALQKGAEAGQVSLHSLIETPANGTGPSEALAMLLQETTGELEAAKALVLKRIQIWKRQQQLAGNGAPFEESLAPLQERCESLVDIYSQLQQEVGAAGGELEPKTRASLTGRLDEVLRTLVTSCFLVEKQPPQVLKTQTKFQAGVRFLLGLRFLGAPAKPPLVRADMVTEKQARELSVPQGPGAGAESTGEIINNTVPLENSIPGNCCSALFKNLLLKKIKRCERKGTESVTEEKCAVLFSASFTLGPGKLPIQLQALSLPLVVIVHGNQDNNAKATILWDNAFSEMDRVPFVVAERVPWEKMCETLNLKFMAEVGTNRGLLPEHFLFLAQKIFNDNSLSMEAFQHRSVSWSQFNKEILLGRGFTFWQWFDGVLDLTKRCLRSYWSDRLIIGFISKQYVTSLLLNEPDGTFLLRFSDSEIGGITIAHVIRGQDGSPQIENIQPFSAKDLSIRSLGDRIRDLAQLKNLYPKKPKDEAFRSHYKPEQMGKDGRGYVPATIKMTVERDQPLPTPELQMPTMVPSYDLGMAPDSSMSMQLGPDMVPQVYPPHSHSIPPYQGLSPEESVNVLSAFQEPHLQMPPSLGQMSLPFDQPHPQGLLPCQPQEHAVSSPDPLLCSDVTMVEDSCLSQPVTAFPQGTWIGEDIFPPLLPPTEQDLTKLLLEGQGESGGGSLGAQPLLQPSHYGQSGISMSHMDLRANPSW
Outline: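 Luminescence from a NanoLuc reporter driven by the STAT6-responsive IL-13Ra2 promoter in HaCaT keratinocytes serves as the read-out. Compounds are given 2 h before a 4 h stimulation with 0.12 nM IL-13.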

[1] = test system: CCL17 secretion in peripheral human whole blood; test: Human Whole Blood (HWB) CCL17 TR-FRET Assay (IL-13 stimulated CCL17 secretion); assay type: cell-based
Outline: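 Heparinized peripheral human whole blood was preincubated with compound (11-point, 3-fold series, duplicate) for 2 h at 37 °C, then stimulated with IL-13 at 10 ng/mL final for 48 h at 37 °C. Secreted CCL17 in the serum was quantified by TR-FRET sandwich immunoassay (665/615 nm ratio, 16 h RT); IC50 derived.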

[2] = STAT6 NanoLuc luciferase reporter, IL-13 stimulated HaCaT keratinocyte cells
[3] = Homo sapiens, 48 h, inhibition of CCL17 secretion in human whole blood, 10 ng/mL IL13, 48 hours
[4] = IL-13 stimulated HaCaT STAT6 NanoLuc reporter cells
[5] = Homo sapiens, 48 h, human whole blood, IL-13 stimulated

Row | SMILES | EC50 (STAT6; [2]) [nM] | IC50 [1, 3] [nM] | EC50 (STAT6; [4]) [nM] | IC50 [1, 5] [nM] | IC50 ([1]; human whole blood, IL-13 stimulated, 48 hours) [nM]
1 | CC(C)n1nc(C(=O)NCc2ccc(NC(=O)N3CCO[C@@H](CO)C3)cc2)c2c1CCN(c1ccc(C(=O)N(C)C)cn1)C2 [Example 167, (R)-N-(4-((5-(5-(dimethylcarbamoyl)pyridin-2-yl)-1-isopropyl-4,5,6,7-tetrahydro-1H-pyrazolo[4,3-c]pyridine-3-carboxamido)methyl)phenyl)-2-(hydroxymethyl)morpholine-4-carboxamide] | 29 | 154 |  |  | 
2 | CC(C)n1nc(C(=O)NCc2ccc(NC(=O)N(C)CC3COC3)cc2)c2c1CCN(c1ccc(C(=O)N(C)C)cn1)C2 [Example 168, 5-(5-(dimethylcarbamoyl)pyridin-2-yl)-1-isopropyl-N-(4-(3-methyl-3-(oxetan-3-ylmethyl)ureido)benzyl)-4,5,6,7-tetrahydro-1H-pyrazolo[4,3-c]pyridine-3-carboxamide] | 24 | 111 |  |  | 
3 | CC(C)n1nc(C(=O)NCc2ccc(NC(=O)N[C@H]3C[C@@H](O)C3)cc2)c2c1CCN(c1ccc(C(=O)N(C)C)cn1)C2 [Example 169] | 32 | 125 |  |  | 
4 | CC(C)n1nc(C(=O)NCc2ccc(NC(=O)NCC3COC3)cc2)c2c1CCN(c1ccc(C(=O)N(C)C)cn1)C2 [Example 181, 5-(5-(dimethylcarbamoyl)pyridin-2-yl)-1-isopropyl-N-(4-(3-(oxetan-3-ylmethyl)ureido)benzyl)-4,5,6,7-tetrahydro-1H-pyrazolo[4,3-c]pyridine-3-carboxamide] | 260 | 436 |  |  | 
5 | CC(C)n1nc(C(=O)NCc2ccc(NC(=O)N3CC[C@H](C#N)C3)cc2)c2c1CCN(c1ccc(C(=O)N(C)C)cn1)C2 [Example 182, (S)-N-(4-(3-cyanopyrrolidine-1-carboxamido)benzyl)-5-(5-(dimethylcarbamoyl)pyridin-2-yl)-1-isopropyl-4,5,6,7-tetrahydro-1H-pyrazolo[4,3-c]pyridine-3-carboxamide] |  |  | 17 | 131 | 
6 | CC(C)n1nc(C(=O)NCc2ccc(NC(=O)N3CC[C@@H](C#N)C3)cc2)c2c1CCN(c1ccc(C(=O)N(C)C)cn1)C2 [Example 183, (R)-N-(4-(3-cyanopyrrolidine-1-carboxamido)benzyl)-5-(5-(dimethylcarbamoyl)pyridin-2-yl)-1-isopropyl-4,5,6,7-tetrahydro-1H-pyrazolo[4,3-c]pyridine-3-carboxamide] |  |  | 16 | 67 | 
7 | CC(C)n1nc(C(=O)NCc2ccc(NC(=O)N3CC4CC(C3)O4)cc2)c2c1CCN(c1ccc(C(=O)N(C)C)cn1)C2 [Example 184, N-(4-((5-(5-(dimethylcarbamoyl)pyridin-2-yl)-1-isopropyl-4,5,6,7-tetrahydro-1H-pyrazolo[4,3-c]pyridine-3-carboxamido)methyl)phenyl)-6-oxa-3-azabicyclo[3.1.1]heptane-3-carboxamide] |  |  | 27 |  | 92
8 | CC(C)n1nc(C(=O)NCc2ccc(NC(=O)N3CC(C)(O)C3)cc2)c2c1CCN(c1ccc(C(=O)N(C)C)cn1)C2 [Example 185, 5-(5-(dimethylcarbamoyl)pyridin-2-yl)-N-(4-(3-hydroxy-3-methylazetidine-1-carboxamido)benzyl)-1-isopropyl-4,5,6,7-tetrahydro-1H-pyrazolo[4,3-c]pyridine-3-carboxamide] |  |  | 24 | 83 | 
9 | CC(C)n1nc(C(=O)NCc2ccc(NC(=O)N(C)[C@H]3CCOC3)cc2)c2c1CCN(c1ccc(C(=O)N(C)C)cn1)C2 [Example 187, (S)-5-(5-(dimethylcarbamoyl)pyridin-2-yl)-1-isopropyl-N-(4-(3-methyl-3-(tetrahydrofuran-3-yl)ureido)benzyl)-4,5,6,7-tetrahydro-1H-pyrazolo[4,3-c]pyridine-3-carboxamide] |  |  | 15 | 41 | 

The remaining compounds from weak to strong by EC50 (STAT6; [2]), led by results:

Row | EC50 (STAT6; [2]) [nM] | IC50 [1, 3] [nM] | EC50 (STAT6; [4]) [nM] | IC50 [1, 5] [nM] | SMILES | IC50 ([1]; human whole blood, IL-13 stimulated, 48 hours) [nM]
10 | 18 | 55 |  |  | CC(C)n1nc(C(=O)NCc2ccc(NC(=O)N(C)CCO)cc2)c2c1CCN(c1ccc(C(=O)N(C)C)cn1)C2 [Example 180, 5-(5-(dimethylcarbamoyl)pyridin-2-yl)-N-(4-(3-(2-hydroxyethyl)-3-methylureido)benzyl)-1-isopropyl-4,5,6,7-tetrahydro-1H-pyrazolo[4,3-c]pyridine-3-carboxamide] | 
11 | 17 | 82 |  |  | CC(C)n1nc(C(=O)NCc2ccc(NC(=O)N3CC[C@H](N(C)C)C3)cc2)c2c1CCN(c1ccc(C(=O)N(C)C)cn1)C2 [Example 170, (S)-N-(4-(3-(dimethylamino)pyrrolidine-1-carboxamido)benzyl)-5-(5-(dimethylcarbamoyl)pyridin-2-yl)-1-isopropyl-4,5,6,7-tetrahydro-1H-pyrazolo[4,3-c]pyridine-3-carboxamide] | 
12 | 14 | 156 |  |  | COC1(C)CN(C(=O)Nc2ccc(CNC(=O)c3nn(C(C)C)c4c3CN(c3ccc(C(=O)N(C)C)cn3)CC4)cc2)C1 [Example 165, 5-(5-(dimethylcarbamoyl)pyridin-2-yl)-1-isopropyl-N-(4-(3-methoxy-3-methylazetidine-1-carboxamido)benzyl)-4,5,6,7-tetrahydro-1H-pyrazolo[4,3-c]pyridine-3-carboxamide] | 
13 | 11 | 150 |  |  | CC(C)n1nc(C(=O)NCc2ccc(NC(=O)N3CCC(C)(C#N)CC3)cc2)c2c1CCN(c1ccc(C(=O)N(C)C)cn1)C2 [Example 172, N-(4-(4-cyano-4-methylpiperidine-1-carboxamido)benzyl)-5-(5-(dimethylcarbamoyl)pyridin-2-yl)-1-isopropyl-4,5,6,7-tetrahydro-1H-pyrazolo[4,3-c]pyridine-3-carboxamide] | 
14 | 11 | 72 |  |  | CC(C)n1nc(C(=O)NCc2ccc(NC(=O)N3CCOCC3)cc2)c2c1CCN(c1ccc(C(=O)N(C)C)cn1)C2 [Example 173, N-(4-((5-(5-(dimethylcarbamoyl)pyridin-2-yl)-1-isopropyl-4,5,6,7-tetrahydro-1H-pyrazolo[4,3-c]pyridine-3-carboxamido)methyl)phenyl)morpholine-4-carboxamide] | 
15 | 8 | 51 |  |  | CC(C)n1nc(C(=O)NCc2ccc(NC(=O)N3CCN(C)CC3)cc2)c2c1CCN(c1ccc(C(=O)N(C)C)cn1)C2 [Example 177, 5-(5-(dimethylcarbamoyl)pyridin-2-yl)-1-isopropyl-N-(4-(4-methylpiperazine-1-carboxamido)benzyl)-4,5,6,7-tetrahydro-1H-pyrazolo[4,3-c]pyridine-3-carboxamide] | 
16 | 7 | 67 |  |  | CC(C)n1nc(C(=O)NCc2ccc(NC(=O)N3CCC(CO)CC3)cc2)c2c1CCN(c1ccc(C(=O)N(C)C)cn1)C2 [Example 175, 5-(5-(dimethylcarbamoyl)pyridin-2-yl)-N-(4-(4-(hydroxymethyl)piperidine-1-carboxamido)benzyl)-1-isopropyl-4,5,6,7-tetrahydro-1H-pyrazolo[4,3-c]pyridine-3-carboxamide] | 
17 | 7 | 45 |  |  | COCCNC(=O)Nc1ccc(CNC(=O)c2nn(C(C)C)c3c2CN(c2ccc(C(=O)N(C)C)cn2)CC3)cc1 [Example 178, 5-(5-(dimethylcarbamoyl)pyridin-2-yl)-1-isopropyl-N-(4-(3-(2-methoxyethyl)ureido)benzyl)-4,5,6,7-tetrahydro-1H-pyrazolo[4,3-c]pyridine-3-carboxamide] | 
18 | 7 | 64 |  |  | CO[C@@H]1CCN(C(=O)Nc2ccc(CNC(=O)c3nn(C(C)C)c4c3CN(c3ccc(C(=O)N(C)C)cn3)CC4)cc2)C1 [Example 179, (R)-5-(5-(dimethylcarbamoyl)pyridin-2-yl)-1-isopropyl-N-(4-(3-methoxypyrrolidine-1-carboxamido)benzyl)-4,5,6,7-tetrahydro-1H-pyrazolo[4,3-c]pyridine-3-carboxamide] | 
19 | 4 | 21 |  |  | CO[C@H]1CN(C(=O)Nc2ccc(CNC(=O)c3nn(C(C)C)c4c3CN(c3ccc(C(=O)N(C)C)cn3)CC4)cc2)C[C@@H]1O [Example 166, 5-(5-(dimethylcarbamoyl)pyridin-2-yl)-N-(4-((3S,4S)-3-hydroxy-4-methoxypyrrolidine-1-carboxamido)benzyl)-1-isopropyl-4,5,6,7-tetrahydro-1H-pyrazolo[4,3-c]pyridine-3-carboxamide] | 
